In this test the test system is MCP-1. Description: Real-time RT-PCR of pancreatic chemokine mRNA after hemin. As to conditions: pancreas 24 h after one intraperitoneal injection. Type of test: in vivo, mice. The protocol:
FIG. 3: Hemin increases HO-1^+ pancreatic macrophages in association with MCP-1 and MIP-1α induction. (A) Pancreas from CDD-fed mice was triple-stained using antibodies to HO-1 (a), the macrophage marker F4/80 (b), and the granulocyte marker Gr-1 (c). Scale bar in panel d=[…]. (B) Mice were treated intraperitoneally with hemin (H) or vehicle (V) once (H×1) or 3×(H×3, V×3) during a one week period, followed by feeding with CDD or regular chow for 3 d. Pancreata were collected followed by staining and counting F4/80^+ macrophages in 10 randomly selected high power fields (HPF). The mean±SD (3 mice/group) and p-value for the indicated comparisons are shown. (C) Hemin (H) or vehicle (V) were injected intraperitoneally once followed by harvesting of pancreata after 24 h. A non-injected control “C” group was also included. mRNA levels were then estimated from pancreata of 3 mice/group as a ratio of the indicated chemokine to β-actin (mean±SD).
Real-time reverse transcription (RT)-PCR. Total RNA was isolated from pancreatic tissue using a commercial kit (TEL-TEST; Friendswood, Tex.). First strand cDNA was synthesized using oligo-dT primers and SuperScript II reverse transcriptase (Invitrogen; Carlsbad, Calif.). Real-time quantitative PCR was performed with an ABI Prism 7900 Sequence Detection System (PE Biosystems; Foster City, Calif.) and established primers for MCP-1, MIP-1α, MIP-2, RANTES, and β-actin. Zhong, B., et al., J. Cell Sci. 117:1709-1719; Zhang, Y., McCormick, L. L., Desai, S. R., Wu, C., and Gilliam, A. C. 2002. Murine sclerodermatous graft-versus-host disease, a model for human scleroderma: cutaneous cytokines, chemokines, and immune cell activation. J. Immunol. 168:3088-3098; Walzog, B., Weinmann, P., Jeblonski, F., Scharffetter-Kochanek, K., Bommert, K., and Gaehtgens, P. 1999. A role for beta(2) integrins (CD11/CD18) in the regulation of cytokine20 gene expression of polymorphonuclear neutrophils during the inflammatory response. FASEB J. 13:1855-1865. Primers to β-actin were used as an internal control reference, and the amount of specific cytokine relative to actin transcript was determined and reported as mean±SD.
Background: In qPCR the cycle at which signal appears reflects the starting amount.

We go through 1 substance from patent US7745402B2, “Method of treating pancreatitis” (Lundbeck Inc., priority 2005, dated 2010).

As to Hemin, the “MCP-1 mRNA (ratio to β-actin)” value was “induction”.
